Source: patent publication US20250263437A1, “POLYPEPTIDE FOR REPAIRING SKIN WOUND OR MUCOSAL INJURY, AND APPLICATION THEREOF” (Sichuan Gooddoctor Panxi Pharmaceutical Co., Ltd., priority 2021, published 2025)
“Also recorded” adds a separate entry of the source. Where no end group is shown, it is not given here.

Key:
[1] = tested on: ethanol-induced gastric ulcer model in mice; assay: Anti-ulcer effect on ethanol-induced gastric ulcer model in mice; assay type: in vivo; conditions: single administration; ulcer inhibition rate of test compound / ulcer inhibition rate of Compound 1
Protocol: Experimental animals: Six-week old C57BL/6JGPt male mice, weighing about 20 g/mouse, were selected, with 10 mice in each group, from GemPharmatech (Chengdu) Co., Ltd., animal license number: SCXK (Chuan) 2020-034. After the experimental animals were divided into groups, they were dosed according to Table 5 one day before the experiment. Among the groups, the model group was given 200 μl of pure water, and the other dose groups were given 200 μl of drug solution. After that, all the animals were fasted for 24 h with free access to water. The next day, 1 h after administration, the mice in each group were given 9 μl/g of absolute ethanol by oral gavage for modeling. After 1 h, the animals were sacrificed by cervical dislocation, the gastric cardia was ligated, the pylorus was occluded, and the whole stomach was removed. 1 mL of 1% formaldehyde solution was injected into the gastric lumen via the glandular stomach, the cardia was ligated, and the stomach was taken out and immediately immersed in 1% formaldehyde solution. After soaking for 30 min, the stomach tissue was taken out and cut open along the greater curvature. The content of the stomach was rinsed off with normal saline, the injury of the gastric mucosa in the mice were observed and measured after being laid flat, and the ulcer index and ulcer inhibition rate were calculated; panoramic photos of the stomach were taken; and finally, the gastric tissue sample was immersed in formalin and fixed. Calculation method for ulcer index: If the length of cord-like injury was greater than 1 mm, the length thereof was measured, with 1 point per millimeter; if the width thereof was greater than 1 mm, the score thereof was doubled according to the number of millimeters of the width; and if the length was less than 1 mm, a score of 0.5 was given, and the scores were added up to obtain the ulcer index of the animal. Method of data statistics: the ulcer index was expressed as mean±standard deviation; the ulcer inhibition rate was calculated by using the median value and mean value of the ulcer index in each dosage group and simulation group; and the data were statistically analyzed by means of Excel, and the difference data of the gastric ulcer index were statistically analyzed by means of independent sample T test.

[2] = tested on: acute mechanical skin injury in rats; assay: Healing effect on acute mechanical skin injury in rats; assay type: in vivo; conditions: for promoting wound healing (in words): 40 μg/cm^2; for wound healing rate, 5 days / wound healing rate, 10 days / wound healing rate, 14 days: polypeptide 40 μg/cm^2, Jinyintai 40 IU/cm^2, topical once daily, in % (unit assumed)
Protocol: SPF grade SD rats, weighing 180-230 g, were raised in respective clean sterilized cages, with water, feed and padding replacement given regularly every day. The feeding temperature was kept at 22° C. and the humidity was 55-65%. They were raised for one week for acclimatization. According to a random grouping method, the animals were divided into a model control group (normal saline), a Jinyintai control group (40 IU/cm^2, Shenzhen Watsin Genetech Ltd.) and a test polypeptide treatment group (40 μg/cm^2), with 6 animals in each group. After the rats were successfully anesthetized by intraperitoneal injection of 3% pentobarbital sodium, the hair within 1 cm around the edge of the wound was cut off, and the wound area was disinfected first with iodophor and then with 75% alcohol locally. A round full-thickness skin wound of 1.5 cm×1.5 cm (i.e., 1.5 cm in diameter) was made near the neck at 4 cm down to the back from the middle of the connecting line of the ears, with the spine as the midline. It went deep into the muscle layer, forming an animal model of acute mechanical injury. After modeling, the rats were raised in individual cages with the wounds exposed. During dressing replacement, the rats were all first debrided with iodophor, and then, the wound was washed with sterile normal saline and wiped dry. Except the model group, the wounds of the rats in the other groups were locally coated with 40 μL of the corresponding drug solution once daily. On days 0, 5, 10 and 14 of administration, the wound images of the rats in each group were taken, and the wound area was calculated by means of an image analysis software (Image J). According to the formula, the wound healing rate was obtained.

HaCaT cells = assay: Proliferation of HaCaT cells (CCK8); assay type: cell-based, human; conditions: 0.2-0.8 μg/mL; 24 h, 48 h and 72 h; 1% serum
Protocol: Experimental method: Immortalized human keratinocytes (HaCaT cells) was adjusted to a concentration of 1.0×10^5 to 5.0×10^5/mL for passaging, and they were cultured at 37° C. and 5% CO2 for 24-36 h for biological activity detection. The cells were digested with 0.25% trypsin for 5 min, 1640 whole blood culture medium, the volume of which was not less than 1 time of the volume of the trypsin, was added to stop digestion, a cell suspension was collected, centrifuged at 1000 RPM for 3 min, the supernatant was discarded, 2 mL of 1640 whole blood culture medium was added to suspend the cells, 20 μL of the cell suspension was taken and stained with AOPI, the concentration of cells in the suspension was then detected by a cell counter, the suspension was prepared to a concentration of 5×10^4/mL with 1640 culture medium containing serum at a concentration of 10% and inoculated into a 96-well cell culture plate, with 100 μL per well, i.e., 5000 cells/well, and the plate was cultured at 37° C. and 5% CO2 overnight.
After 24 h, the original culture medium was discarded, and 100 μL of polypeptide compound solutions with different concentrations prepared with 1640 culture medium containing serum at a concentration of 1% were added, such that the final concentrations of the polypeptide compounds to be tested were 0.2, 0.4 and 0.8 ug/mL, respectively. In addition, an EGF control group was prepared by adding 100 μL of a recombinant human epidermal growth factor (EGF) solution prepared with 1640 culture medium containing serum at a concentration of 1%, with the final concentration being 100 ng/ml. In the model control group, an equal volume of 1640 culture medium containing serum at a concentration of 1% was added. After culturing at 37° C. and 5% CO2 for 24 h, 48 h and 72 h, the proliferation of the HaCaT cell line was detected by means of CCK8 kit.

RSC96 cells = assay: Proliferation of RSC96 cells (CCK-8); assay type: cell-based; conditions: 0.2, 0.4 and 0.8 ug/ml; 48 h; 0% serum
Protocol: Glial cells (RSC96 cells) were adjusted to a concentration of 1.0×10^5 to 5.0×10^5/mL for passaging and cultured at 37° C. and 5% CO2 for 24-36 h for biological activity detection. The cells were digested by trypsin, collected, prepared to a concentration of 5×10^4/mL with a serum-free medium, inoculated into a 96-well cell culture plate, with 100 μL per well, i.e., 5000 cells/well, and cultured overnight at 37° C. and 5% CO2. The polypeptide compound of the present invention was prepared to test concentrations (0.2 ug/ml, 0.4 ug/ml, and 0.8 ug/ml) with 0% serum culture medium as experimental groups, and an equal amount of 0% serum drug-free culture medium was added to the control group. They were added to 4 duplicate wells, and the resultants were incubated at 37° C. and 5% CO2 for 48 h. Detection of the proliferation of cells using CCK-8: the old culture medium was removed, and a serum-free medium containing 10% CCK-8 was added to each well. After incubation in an incubator for 2 h, the absorbance at 450 nm was measured by a microplate reader.

Row | Sequence | Anti-ulcer activity (mean relative ulcer inhibition rate) [1] | promoting wound healing (in words) [2] | wound healing rate, 5 days [2] | wound healing rate, 10 days [2] | wound healing rate, 14 days [2] | effect on proliferation of HaCaT cells (HaCaT cells) | effect on proliferation of RSC96 cells (RSC96 cells)
1 | SMQASLEAEAKGKAE [Compound 1] | 1.00 | trend of promoting wound healing | 31.68 ± 3.48 | 63.20 ± 3.87 | 91.43 ± 2.87 | proliferation-promoting effect | significant proliferation promoting effects; also recorded: proliferation-promoting effect
2 | VDAAVLEKLE [Compound 67] | 0.24 | trend of promoting wound healing | 30.40 ± 3.35 | 61.42 ± 5.73 | 90.87 ± 3.94 | proliferation-promoting effects | proliferation-promoting effect
3 | AAVLDKLE [Compound 68] | 0.85 | trend of promoting wound healing | 29.26 ± 6.46 | 60.97 ± 2.87 | 88.42 ± 4.79 | proliferation-promoting effect | significant proliferation promoting effects
